{"source": "patent US20170258871A1", "about": "“COMBINED USE OF A TRKA INHIBITOR AND AN EPHA2 INHIBITOR FOR USING IN THE TREATMENT OF SOLID CANCERS, AND METHOD FOR THE PROGNOSIS OF SURVIVAL OF A PATIENT WHO HAS A SOLID CANCER” (UNIVERSITE DES SCIENCES ET TECHNOLOGIES DE LILLE, priority 2014, published 2017)", "key": {"CAL33 cells": {"tested_on": "CAL33 cells", "assay": "In vitro invasion test (Boyden chamber), CAL 33", "assay_type": "cell-based", "conditions": "NGF 16 nM or proNGF N.C. 0.5 nM, untreated cells = 100%", "experimental": "(0.5 nM) for a period of 20 hours. The untreated cells represent the control and determine a base invasion of 100%.\nThe Boyden Chambers (Transwell®; BD Biosciences; France) were recovered from a biological matrix (type 1 collagen from rats diluted to 400 μg·mL-1 in EMEM-0.1% FCS medium; Millipore). The cells were then seeded with 100,000 cells/well on PET membranes (polyethylene terephtalate; dia.: 10.5 mm; porosity: 8 μm) of Boyden Chambers and held in an EMEM-0.1% FCS medium. […] (0.5 nM) in the lower part. After 20 hours of culture, they were washed twice with PBS 1× and fixed (ice cold methanol; 15 min; −20° C.). The non-invasive cells (upper face of the Transwell®) were eliminated by scraping. The number of cells was estimated after staining with Hoechst 33 258 (1 mM; 30 min; 20° C.) by counting the nuclei thereof using fluorescence microscopy on a total of 5 five randomly chosen fields (lens 10×; λ-excitation: 345 nm; λ-emission: 478 nm; Eclipse Ti) using the ImageJ software. Each experiment was performed in triplicate. Statistical analysis of the results was performed by analysis of variance ANOVA (Bonferroni post-hoc test)."}, "[1]": {"tested_on": "MDA-MB-231 HA-TrkA tumours", "assay": "Xenograft of MDA-MB-231 HA-TrkA in SCID mice, tumour volume (Experiment 1)", "assay_type": "in vivo", "conditions": "3 injections every 3 days from day 14; CEP-701 10 mg/kg intraperitoneal, siEphA2 7.5 microg/mouse close to the tumour", "experimental": "FIG. 9: A study of the inhibition of TrkA and EphA2 on tumour development in vivo. The tumours were developed without any intervention for 14 days and then subjected to 3 injections (every 3 days, black arrows) of solvent (control), CEP-701 (10 mg/kg), siEphA2 (7.5 microg/mouse) or CEP-701 (10 mg/kg) and siEphA2 (7.5 microg/mouse). The experiments were stopped 31 days after the first injection of the treatment for ethical considerations after the death of the control mice. A) The tumour volumes were evaluated by measuring the length (;) and the width (w) and then calculating the volume using the formula π/6×l×W×(l+w)/2; the Mann and Whitney test was carried out between the control group and CEP-701 (a), between the control groups and siEphA2 (b), between the control groups and CEP-701+siEphA2 (c), and between the groups siEphA2 and CEP-701+siEphA2 (d)*, P<0.05; **, P<0.01; ns: not significant. B) Study of the inhibition of the expression of receptors by siRNA on the overall survival of SCID mice. […] The tumour volumes were evaluated by measuring the length (l) and width (w) and then calculating the volume using the formula π/6×l×W×(l+w)/2. […] Significance was measured using the log-rank test (P=0.0022). […]\nExperiment 1: the mice used were six-week old SCID females. […] The tumour volume was measured according to the following formula: π/6×length×width×(width+length)/2. […]"}}, "data": [{"substance": "NGF: Nerve Growth Factor; recombinant human β NGF supplied by Scil Proteins", "values": [{"measurement": "cell invasion under growth factor", "setting": "CAL33 cells", "result": "increased cell invasion"}]}, {"substance": "siEphA2: siRNA against EphA2, GCAAGGAAGUGGUACUGCUGGACUU (SEQ ID NO: 1) (listed as RNA, chemistry not given here)", "values": [{"measurement": "tumour volume / growth of xenografted tumours vs control", "setting": "[1]", "result": "strongly reduces the growth of xenografted tumours"}]}]}
